Experimental findings from ChEMBL document CHEMBL6134780, “Halogenated retinoid derivatives as dual RARα and RXRα modulators for treating acute promyelocytic leukemia cells” (Eur J Med Chem, 2024) are described below.

Test [1] deals with HeLa. As to the kind of experiment: Induction of 3-flag-tagged PML-RARalpha (unknown origin) degradation transfected in human HeLa cells at 1 to 2 uM incubated for 24 hrs by Western blot analysis. In kind it is cell-based. To be noted: dose 1-2 µM.
For test [2], the target named is T1, Retinoic acid receptor RXR-beta (Homo sapiens) (UniProt P28702).
T1 sequence (whole entry): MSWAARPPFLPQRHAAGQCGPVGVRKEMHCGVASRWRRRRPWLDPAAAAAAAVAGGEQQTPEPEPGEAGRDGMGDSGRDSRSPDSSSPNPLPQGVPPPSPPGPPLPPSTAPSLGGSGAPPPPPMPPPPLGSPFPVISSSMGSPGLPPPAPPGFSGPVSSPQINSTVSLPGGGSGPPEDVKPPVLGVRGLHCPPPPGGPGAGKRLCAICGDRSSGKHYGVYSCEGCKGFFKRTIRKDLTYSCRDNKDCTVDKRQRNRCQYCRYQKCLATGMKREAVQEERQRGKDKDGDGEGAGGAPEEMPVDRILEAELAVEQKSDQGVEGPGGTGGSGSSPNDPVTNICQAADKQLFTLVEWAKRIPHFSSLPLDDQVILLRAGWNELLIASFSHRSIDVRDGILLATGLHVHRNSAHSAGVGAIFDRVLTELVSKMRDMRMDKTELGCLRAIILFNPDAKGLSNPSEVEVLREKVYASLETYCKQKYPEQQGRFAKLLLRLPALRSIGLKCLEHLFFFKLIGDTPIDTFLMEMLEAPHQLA
The test can be described thus: Competitive binding affinity to Gal4-fused full length RXRbeta LBD (unknown origin) transfected in HEK293T cells co-transfected with pG5luc reporter and Renilla-luc at 0.1 to 1 uM incubated for 12 hrs in presence of ATRA by luciferase reporter gene assay. It counts as cell-based. To be noted: dose 0.1-1 µM.

For test [3], the system named is NB-4. As to the kind of experiment: Induction of apoptosis in human NB4 cells at 2 uM incubated for 3 hrs by Western blot analysis. In kind it is functional, cell-based.
Test [4] concerns NB-4. As to the kind of experiment: Induction of cell death in M phase synchronized human NB4 cells assessed as reduction in mitotic cells at 0.5 uM preincubated for 4 days followed by release from thymidine block for 10 hrs by immunofluorescence staining based analysis. In kind it is functional. To be noted: time 106.0 hrs.
Test [5] has as its system NB-4. The test can be described thus: Cell cycle arrest in human NB4 cells assessed as accumulation of cells at sub-G1 phase at 0.5 uM incubated for 6 days for DAPI staining based flow cytometric analysis (reference value: 6 %). It counts as functional. To be noted: time 6 day. On the technique in general: In flow cytometry, cells or beads pass a laser one at a time.
The subject of test [6] is ATRA-resistant NB4-LR2. The test can be described thus: Induction of mitosis in human ATRA-resistant NB4-LR2 cells assessed as upregulation of pT210-PLK1 expression at 2 uM measured after 3 hrs by Western blot analysis. It counts as functional, cell-based.
The subject of test [7] is K562. The test can be described thus: Induction of apoptosis in human K562 cells assessed as viable cells at 2 uM incubated for 24 hrs by Annexin V-FITC/PI staining based flow cytometric analysis (reference value: 90.02 %). In kind it is functional. To be noted: read-out: Activity.
In test [8] the test system is NB-4. As to the kind of experiment: Cell cycle arrest in human NB4 cells assessed as increase in PLK1 expression at 2 uM incubated for 3 to 24 hrs by Western blot analysis. To be noted: time 3-24 hrs. In kind it is functional, cell-based. Background: In western blotting, separated proteins are transferred to a membrane and probed.
Test [9] deals with Oxysterols receptor LXR-beta (Homo sapiens) (UniProt P55055). The test can be described thus: Agonist activity at Gal4-fused full length LXRbeta LBD (unknown origin) transfected in HEK293T cells co-transfected with pG5luc reporter and Renilla-luc at 0.1 to 1 uM incubated for 12 hrs by luciferase reporter gene assay. In kind it is cell-based. The conditions noted are these: dose 0.1-1 µM. (In general: In a reporter assay the amount or activity of a reporter protein is the signal.)

Test [10] deals with NB-4. The test can be described thus: Antiproliferative activity against human NB4 cells assessed as inhibition of cell viability incubated for 3 days by CCK8 assay. In kind it is functional, cell-based. To be noted: dose <= 3.5 µM, time 3.0 day.
The target in test [11] is T2, Retinoic acid receptor gamma (Homo sapiens) (UniProt P13631).
T2 sequence (whole entry): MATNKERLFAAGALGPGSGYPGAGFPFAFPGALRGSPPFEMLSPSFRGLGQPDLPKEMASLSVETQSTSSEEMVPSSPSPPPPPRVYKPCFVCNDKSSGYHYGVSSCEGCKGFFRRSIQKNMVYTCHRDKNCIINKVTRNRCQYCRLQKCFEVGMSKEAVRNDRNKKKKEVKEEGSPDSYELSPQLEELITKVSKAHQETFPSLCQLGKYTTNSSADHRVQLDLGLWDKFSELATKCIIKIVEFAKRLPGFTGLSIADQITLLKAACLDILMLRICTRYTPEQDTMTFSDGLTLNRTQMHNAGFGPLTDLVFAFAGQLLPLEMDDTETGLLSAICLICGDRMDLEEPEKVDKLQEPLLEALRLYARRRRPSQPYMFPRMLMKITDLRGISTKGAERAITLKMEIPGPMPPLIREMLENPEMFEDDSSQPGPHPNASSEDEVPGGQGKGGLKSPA
As to the kind of experiment: Agonist activity at Gal4-fused full length human RARgamma LBD transfected in HEK293T cells co-transfected with pG5luc reporter and Renilla-luc assessed as transactivation by measuring maximal efficacy incubated for 12 hrs by dual luciferase reporter gene assay relative to control. It counts as cell-based.

Test [12] relates to NB-4. The test can be described thus: Antiproliferative activity against human NB4 cells assessed as inhibition of cell viability up to 3.5 uM incubated for 3 days by CCK8 assay relative to control. It counts as functional. The conditions noted are these: time 3 day.
Test [13] concerns NB-4. The test can be described thus: Induction of apoptosis in human NB4 cells assessed as late apoptotic cells at 1 uM incubated for 24 hrs by Annexin V-FITC/PI staining based flow cytometric analysis (reference value: 3.20 %). It counts as functional.
Test [14] deals with ATRA-resistant NB4-LR2. As to the kind of experiment: Cell cycle arrest in human ATRA-resistant NB4-LR2 cells assessed as increase in cyclin B1 expression at 2 uM incubated for 3 to 24 hrs by Western blot analysis. The conditions noted are these: time 3-24 hrs. In kind it is functional, cell-based.
For test [15], the system named is ATRA-resistant NB4-LR2. The test can be described thus: Induction of apoptosis in human ATRA-resistant NB4-LR2 cells assessed as PARP cleavage at 0.5 uM incubated for 24 hrs by Western blot analysis. It counts as functional, cell-based.
For test [16], the system named is ATRA-resistant NB4-LR2. As to the kind of experiment: Induction of apoptosis in human ATRA-resistant NB4-LR2 cells assessed as increase in cleaved-PARP expression at 2 uM incubated for 3 to 24 hrs by Western blot analysis. It counts as functional, cell-based. To be noted: time 3-24 hrs.
Test [17] deals with ATRA-resistant NB4-LR2. As to the kind of experiment: Induction of mitosis in human ATRA-resistant NB4-LR2 cells assessed as upregulation of pS10-histone expression at 2 uM measured after 3 hrs by Western blot analysis. It counts as functional, cell-based.
The target in test [18] is T3, Retinoic acid receptor gamma (Homo sapiens, UniProt P13631).
T3 sequence (P13631 whole entry): T2 sequence (whole entry)
As to the kind of experiment: Agonist activity at Gal4-fused full length human RARgamma LBD transfected in HEK293T cells co-transfected with pG5luc reporter and Renilla-luc assessed as transactivation incubated for 12 hrs by dual luciferase reporter gene assay. To be noted: read-out: EC50. In kind it is cell-based.

Test [19] concerns NB-4. As to the kind of experiment: Cell cycle arrest in human NB4 cells assessed as accumulation of cells at G2/M phase at 0.5 uM incubated for 6 days for DAPI staining based flow cytometric analysis (reference value: 15 %). It counts as functional. The conditions noted are these: time 6 day.
In test [20] the test system is ATRA-resistant NB4-LR2. As to the kind of experiment: Antiproliferative activity against human ATRA-resistant NB4-LR2 cells assessed as effect on cell viability up to 2 uM incubated for 3 days by CCK8 assay. It counts as functional, cell-based. The conditions noted are these: time 3.0 day.
Test [21] deals with NB-4. As to the kind of experiment: Induction of apoptosis in human NB4 cells assessed as PARP cleavage at >1 uM incubated for 24 hrs by Western blot analysis. It counts as functional, cell-based.

Structures are written as SMILES. The source made the active and inactive calls. The rule behind the calls is not given here.

Oxysterols receptor LXR-beta (Homo sapiens), sequence (P55055 whole entry, the tested form may be a part): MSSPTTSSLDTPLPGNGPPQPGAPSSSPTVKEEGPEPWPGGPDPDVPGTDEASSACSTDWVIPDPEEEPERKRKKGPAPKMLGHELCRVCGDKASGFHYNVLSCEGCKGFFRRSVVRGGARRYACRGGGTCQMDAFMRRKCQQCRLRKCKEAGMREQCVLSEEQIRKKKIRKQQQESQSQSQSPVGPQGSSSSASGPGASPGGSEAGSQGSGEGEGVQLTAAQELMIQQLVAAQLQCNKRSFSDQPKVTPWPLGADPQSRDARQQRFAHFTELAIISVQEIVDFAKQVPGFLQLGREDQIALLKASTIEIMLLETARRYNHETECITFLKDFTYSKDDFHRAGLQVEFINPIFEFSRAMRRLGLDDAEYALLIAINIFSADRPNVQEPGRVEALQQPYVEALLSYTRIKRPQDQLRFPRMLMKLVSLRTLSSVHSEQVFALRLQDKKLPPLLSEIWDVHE

`Cc1cc2c(cc1C(=O)/C(Br)=C/c1ccc(C(=O)O)cc1)C(C)(C)CCC2(C)C`: the outcome in test [1], in test [4], in test [6], in test [8], in [14] and in test [15] was Active. The result in test [16], in test [17], in test [20] and in test [21] was Active. Besides, the Activity entry in [2] was “Not active; No Significant Competitive Effect On Atra Activation Observed”; in test [5], 9%; in test [9], “Minimal_effect”; in test [10], “Dose-dependent-effect”; in test [13], 15.77%; in [19] it was 13%. Also, in test [3], the outcome was inactive. Moreover, the viability at 2 µM in test [7] amounted to 88.6%. Also, the Emax in test [11] is 15%. Besides, the “inhibition (INH)” value in test [12] is 100%. Further, the EC50 in [18] was determined as 2240 nM.
Take `Cc1cc2c(cc1C(=O)/C(Br)=C\c1ccc(C(=O)O)cc1)C(C)(C)CCC2(C)C`: the result in test [1], in test [4], in test [6], in [8], in test [14] and in test [15] was Active. For the same compound, the result in [16], in test [17], in test [20] and in test [21] was Active. Besides, the Activity result in test [2] was “Not active; No Significant Competitive Effect On Atra Activation Observed”; in [5], 6%; in [9], “Minimal_effect”; in test [10], “Dose-dependent-effect”; in [13], 10.49%; in test [19], 14%. For the same compound, the result in test [3] was inactive. Also, in [7], the viability at 2 µM was found to be 88.8%. For the same compound, the Emax in test [11] came to 2%. Moreover, the “inhibition (INH)” value in test [12] is 100%. Moreover, the concentration for a half-maximal effect (EC50) in test [18] came out at 1140 nM.

As usually defined, the Emax is the greatest response seen or fitted, relative to the assay's reference. As usually defined, the EC50 is the concentration needed to bring the measured effect to its halfway point.
